Results as given in patent US20200277571A1, “METHOD FOR AMPLIFYING CONE PHOTORECEPTORS OR ROD PHOTORECEPTORS USING DORSALIZATION SIGNAL TRANSMITTER OR VENTRALIZATION SIGNAL TRANSMITTER” (RIKEN, priority 2017, published 2020).

Experiments:
[1] = test system: photoreceptor precursor and cone photoreceptor precursor in retinal tissue produced from human ES cells; test: Immunostaining for CRX and TRβ2 and CRX::Venus fluorescence observation of retinal tissue, day 70-75 of suspension culture; format: cell-based; settings: for CRX-positive and TRβ2-positive cells (cone photoreceptor precursor; proportion to DAPI-positive cells): day 70-75, Control (NUC) about 6.8%; for CRX-positive and TRβ2-positive cells (cone photoreceptor precursor; proportion to DAPI-positive cells) / CRX-positive cells (proportion to DAPI-positive cells) / green fluorescence shown by knocked-in CRX::Venus (order of groups) / cone photoreceptor precursor that emerges in initial stage of development (CRX-positive, TRβ2-expressing) versus Control group / CRX-positive cells (photoreceptor precursors) versus retinal tissue of the Control group: 0.15 nM BMP4, 500 nM Cyclopamine-KAAD; for CRX-positive and TRβ2-positive cells (cone photoreceptor precursor; proportion to DAPI-positive cells) / CRX-positive cells (proportion to DAPI-positive cells): 100 nM LDN193189 or 100 nM SAG from day 22; for CRX-positive cells (proportion to DAPI-positive cells): day 70-75 from start of suspension culture, Control (NUC) about 10.6%; for green fluorescence shown by knocked-in CRX::Venus (order of groups): day 70, fluorescence microscope; for green fluorescence shown by knocked-in CRX::Venus (order of groups) / cone photoreceptor precursor that emerges in initial stage of development (CRX-positive, TRβ2-expressing) versus Control group / CRX-positive cells (photoreceptor precursors) versus retinal tissue of the Control group: 100 nM LDN193189, 100 nM SAG from day 22; for cone photoreceptor precursor that emerges in initial stage of development (CRX-positive, TRβ2-expressing) versus Control group: day 70 or 75; for CRX-positive cells (photoreceptor precursors) versus retinal tissue of the Control group / CRX::Venus-positive cells (GFP immunostaining) versus Control (NUC) group: day 75; for CRX-positive cells (photoreceptor precursors) versus retinal tissue of the Control group: immunostained sections; for CRX::Venus-positive cells (GFP immunostaining) versus Control (NUC) group: along with change of ALDH1A3 region, 0.15 nM BMP4, 100 nM LDN193189, 100 nM SAG from day 22
Description: CRX::Venus knock-in human ES cells (derived from KhES-1; Nakano, T. et al. Cell Stem Cell 2012, 10(6), 771-785) were cultured according to the methods described in “Ueno, M. et al. PNAS 2006, 103(25), 9554-9559” “Watanabe, K. et al. Nat Biotech 2007, 25, 681-686”. As a medium for culturing human ES cells, DMEM/F12 medium (Sigma) supplemented with 20% KSR (KnockOut™ Serum Replacement; Invitrogen), 0.1 mM 2-mercaptoethanol, 2 mM L-glutamine, ix non-essential amino acid, 7.5 ng/mL bFGF was used.
A cell aggregate containing a retinal tissue was prepared by the method described in “Kuwahara et al. Nat Commun 2015, 19(6), 6286-” after modification in part. That is, the aforementioned cultured ES cells were individually dispersed using TrypLE Express (Invitrogen), and the individually dispersed human ES cells were suspended in 100 μL of a serum-free medium in a cell non-adhesive 96 well plate (SUMILON spheroid plate, SUMITOMO BAKELITE CO., LTD.) at 9×10^3 cells per well to allow rapid formation of aggregates, after which they were cultured at 37° C., 5% CO2. As the serum-free medium therefor, a serum-free medium obtained by adding 10% KSR, 450 μM 1-monothioglycerol, 1× Chemically defined lipid concentrate, 5 mg/mL BSA, 20 μM Y27632 to a 1:1 mixture of F-12 medium and IMDM medium was used. At 6 days after the start of suspension culture, BMP4 at a final concentration of 1.5 nM was added and suspension culture was continued. A half amount of the culture medium in the well was exchanged with the above-mentioned medium not supplemented with a BMP signal transduction pathway agonist every 3 or 4 days. A cell aggregate containing a retinal tissue at day 18 from the start of suspension culture was cultured in suspension in a serum-free medium (DMEM/F12 medium supplemented with 1% N2 supplement) containing 3 μM CHIR99021 and 5 μM SU5402 for 4 days, namely, up to day 22 from the start of suspension culture. Thereafter, suspension culture of the cell aggregate containing the retinal tissue was continued until it was appropriately used for analysis and the like. As the culture medium during this period, serum-containing media shown in the following to [3] were used and the cell aggregate was cultured under 5% CO2 conditions.
[1] day 22 to day 38 from the start of suspension culture; DMEM/F12 medium supplemented with 10% fetal calf serum, 1% N2 supplement, and 100 μM taurine. day 38 to day 60 from the start of suspension culture; a 1:3 mixed medium of DMEM/F12 medium supplemented with 10% fetal calf serum, 1% N2 supplement, and 100 μM taurine, and Neurobasal medium supplemented with 10% fetal calf serum, 2% B27 supplement, and 100 μM taurine. after day 60 from the start of suspension culture; Neurobasal medium supplemented with 10% fetal calf serum, 2% B27 supplement, and 100 μM taurine.
[1] Control group (FIG. 2a, f, k, p); according to the method described in Example 1, culture was performed up to day 70 or day 75 from the start of suspension culture and without addition. [2]+BMP group (FIG. 2b, g, 1, q); 0.15 nM BMP4 was added from day 22 from the start of suspension culture to completion of suspension culture, and cultured up to day 70 or day 75 from the start of suspension culture. [3]+Cyclopamine-KAAD group (FIG. 2c, h, m, r); 500 nM Cyclopamine-KAAD was added from day 22 from the start of suspension culture to completion of the suspension culture, and cultured up to day 70 or day 75 from the start of suspension culture. [4]+LDN193189 group (FIG. 2d, i, n, s); 100 nM LDN193189 was added from day 22 from the start of suspension culture to completion of the suspension culture, and cultured up to day 70 or day 75 from the start of suspension culture. [5]+SAG group (FIG. 2e, j, o, t); 100 nM SAG was added from day 22 from the start of suspension culture to completion of the suspension culture, and cultured up to day 70 or day 75 from the start of suspension culture. […]

ALDH1A3 gene = test: Quantitative PCR of ALDH1A3 gene expression in retinal tissue; format: cell-based, human; settings: about day 70-75, 0.15 nM BMP4, 100 nM LDN193189, 100 nM SAG from day 22
Description: [1] Control group (FIG. 2a, f, k, p); according to the method described in Example 1, culture was performed up to day 70 or day 75 from the start of suspension culture and without addition. [2]+BMP group (FIG. 2b, g, 1, q); 0.15 nM BMP4 was added from day 22 from the start of suspension culture to completion of suspension culture, and cultured up to day 70 or day 75 from the start of suspension culture. [3]+Cyclopamine-KAAD group (FIG. 2c, h, m, r); 500 nM Cyclopamine-KAAD was added from day 22 from the start of suspension culture to completion of the suspension culture, and cultured up to day 70 or day 75 from the start of suspension culture. [4]+LDN193189 group (FIG. 2d, i, n, s); 100 nM LDN193189 was added from day 22 from the start of suspension culture to completion of the suspension culture, and cultured up to day 70 or day 75 from the start of suspension culture. [5]+SAG group (FIG. 2e, j, o, t); 100 nM SAG was added from day 22 from the start of suspension culture to completion of the suspension culture, and cultured up to day 70 or day 75 from the start of suspension culture.
RNA was extracted from retinal tissue on about day 70-75 from the start of suspension culture and prepared under the same conditions, cDNA was synthesized, and the ALDH1A3 gene expression level was analyzed by quantitative PCR. As a result, the expression level of the ALDH1A3 gene was suppressed in +BMP4 group as compared to the Control (NUC) group, and the expression was promoted in +LDN193189 group, +SAG group (FIG. 7, white bar (d70) in graph), as similarly observed by immunostaining. In addition, RNA was extracted from retinal tissue on about day 40-44 from the start of suspension culture and cultured under the same conditions except the culture period, cDNA was synthesized, and the ALDH1A3 gene expression level was analyzed by quantitative PCR. As a result, the expression level scarcely changed on about day 40 from the start of suspension culture as compared to on about day 70 from the start of suspension culture and difference was not found (FIG. 7, black bar (d40) in graph).

Compound	CRX-positive and TRβ2-positive cells (cone photoreceptor precursor; proportion to DAPI-positive cells) [1]	CRX-positive cells (proportion to DAPI-positive cells) [1]	green fluorescence shown by knocked-in CRX::Venus (order of groups) [1]	cone photoreceptor precursor that emerges in initial stage of development (CRX-positive, TRβ2-expressing) versus Control group [1]	CRX-positive cells (photoreceptor precursors) versus retinal tissue of the Control group [1]	expression level of the ALDH1A3 gene versus Control (NUC) group (ALDH1A3 gene)	CRX::Venus-positive cells (GFP immunostaining) versus Control (NUC) group [1]
CC1=C2C[C@H]3[C@@H](CC=C4CC(=O)CC[C@@]43C)[C@@H]2CC[C@]12O[C@@H]1C[C@H](C)CN(CCNC(=O)CCCCCNC(=O)CCc3ccccc3)[C@H]1[C@H]2C [Cyclopamine-KAAD]	~8.1%	~14.1%	observed more in the order of +BMP4 group, +Cyclopamine-KAAD group, Control group, +LDN193189 group, +SAG group	observed more	Slightly more		
c1ccc2c(-c3cnn4cc(-c5ccc(N6CCNCC6)cc5)cnc34)ccnc2c1 [LDN193189, 4-[6-(4-piperazin-1-ylphenyl)pyrazolo[1,5-a]pyrimidin-3-yl]quinoline]	~4.5%	about 6.8%	observed more in the order of +BMP4 group, +Cyclopamine-KAAD group, Control group, +LDN193189 group, +SAG group	less	less	promoted	decreased
CNC1CCC(N(Cc2cccc(-c3ccncc3)c2)C(=O)c2sc3ccccc3c2Cl)CC1 (centres unmarked) [SAG]	~3.2%	~5.1%	observed more in the order of +BMP4 group, +Cyclopamine-KAAD group, Control group, +LDN193189 group, +SAG group	less	lesser	promoted	decreased
BMP4: BMP protein; BMP signal transduction pathway agonist used as dorsalization signal transmitter	about 10.8%	about 17.0%	observed more in the order of +BMP4 group, +Cyclopamine-KAAD group, Control group, +LDN193189 group, +SAG group	observed more	clearly higher	suppressed	increased
